Measurements as given in PMC7156458, “Synthetic biology based construction of biological activity-related library of fungal decalin-containing diterpenoid pyrones” (Nature Communications, 2020).

Molecular target: Aβ42 (Homo sapiens, UniProt P05067)
Assay: Th-T (thioflavin-T) assay of Aβ42 aggregation
Type: biochemical
Conditions: for Th-T assay plate reading, mean of three wells (Supplementary Fig. 47): source data, Ab alone and No Ab as controls

Sequence of Aβ42 (P05067 672-713): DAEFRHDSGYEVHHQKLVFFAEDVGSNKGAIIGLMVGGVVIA

For `C=C1CCC2C3(C)CC(C=C(C)C)OC3CCC2(C)C1Cc1c(OC)oc(C)c(C)c1=O` (centres unmarked) [Compound 23], the “Th-T fluorescence, mean of three wells” value (Aβ42 aggregation time course, reading M117) was 3.821, the “Th-T fluorescence, mean of three wells” value (Aβ42 aggregation time course, reading M118) was 3.829 and the “Th-T fluorescence, mean of three wells” value (Aβ42 aggregation time course, reading M119) was 3.818. The “Th-T fluorescence, mean of three wells” value (Aβ42 aggregation time course, reading M120) was 3.827, the “Th-T fluorescence, mean of three wells” value (Aβ42 aggregation time course, reading M121) was 3.807 and the “Th-T fluorescence, mean of three wells” value (Aβ42 aggregation time course, reading M122) was 3.851. For the same compound, the “Th-T fluorescence, mean of three wells” value (Aβ42 aggregation time course, reading M123) was 3.84, the “Th-T fluorescence, mean of three wells” value (Aβ42 aggregation time course, reading M124) was 3.827 and the “Th-T fluorescence, mean of three wells” value (Aβ42 aggregation time course, reading M125) was 3.803. For the same compound, the “Th-T fluorescence, mean of three wells” value (Aβ42 aggregation time course, reading M126) was 3.803, the “Th-T fluorescence, mean of three wells” value (Aβ42 aggregation time course, reading M127) was 3.811 and the “Th-T fluorescence, mean of three wells” value (Aβ42 aggregation time course, reading M128) was 3.832. The “Th-T fluorescence, mean of three wells” value (Aβ42 aggregation time course, reading M129) was 3.806, the “Th-T fluorescence, mean of three wells” value (Aβ42 aggregation time course, reading M130) was 3.7777 and the “Th-T fluorescence, mean of three wells” value (Aβ42 aggregation time course, reading M131) was 3.7932. For the same compound, the “Th-T fluorescence, mean of three wells” value (Aβ42 aggregation time course, reading M132) was 3.801, the “Th-T fluorescence, mean of three wells” value (Aβ42 aggregation time course, reading M133) was 3.762 and the “Th-T fluorescence, mean of three wells” value (Aβ42 aggregation time course, reading M134) was 3.777. For the same compound, the “Th-T fluorescence, mean of three wells” value (Aβ42 aggregation time course, reading M135) was 3.785, the “Th-T fluorescence, mean of three wells” value (Aβ42 aggregation time course, reading M136) was 3.777 and the “Th-T fluorescence, mean of three wells” value (Supplementary Fig. 47, reading M137) was 3.7533. The “Th-T fluorescence, mean of three wells” value (Supplementary Fig. 47, reading M138) was 3.768, the “Th-T fluorescence, mean of three wells” value (Supplementary Fig. 47, reading M139) was 3.732 and the “Th-T fluorescence, mean of three wells” value (Supplementary Fig. 47, reading M140) was 3.756. For the same compound, the “Th-T fluorescence, mean of three wells” value (Supplementary Fig. 47, reading M141) was 3.727, the “Th-T fluorescence, mean of three wells” value (Supplementary Fig. 47, reading M142) was 3.722 and the “Th-T fluorescence, mean of three wells” value (Supplementary Fig. 47, reading M143) was 3.7233. The “Th-T fluorescence, mean of three wells” value (Supplementary Fig. 47, reading M144) was 3.718, the “Th-T fluorescence, mean of three wells” value (Supplementary Fig. 47, reading M145) was 3.718 and the “Th-T fluorescence, mean of three wells” value (Supplementary Fig. 47 source data, measurement M37 of time course) was 3.91. For the same compound, the “Th-T fluorescence, mean of three wells” value (Supplementary Fig. 47 source data, measurement M38 of time course) was 3.88, the “Th-T fluorescence, mean of three wells” value (Supplementary Fig. 47 source data, measurement M39 of time course) was 3.926 and the “Th-T fluorescence, mean of three wells” value (Supplementary Fig. 47 source data, measurement M40 of time course) was 3.945. The “Th-T fluorescence, mean of three wells” value (Supplementary Fig. 47 source data, measurement M41 of time course) was 3.951, the “Th-T fluorescence, mean of three wells” value (Supplementary Fig. 47 source data, measurement M42 of time course) was 3.943 and the “Th-T fluorescence, mean of three wells” value (Supplementary Fig. 47 source data, measurement M43 of time course) was 3.96. For the same compound, the “Th-T fluorescence, mean of three wells” value (Supplementary Fig. 47 source data, measurement M44 of time course) was 3.975, the “Th-T fluorescence, mean of three wells” value (Supplementary Fig. 47 source data, measurement M45 of time course) was 3.993 and the “Th-T fluorescence, mean of three wells” value (Supplementary Fig. 47 source data, measurement M46 of time course) was 3.9875. For the same compound, the “Th-T fluorescence, mean of three wells” value (Supplementary Fig. 47 source data, measurement M47 of time course) was 4.0057, the “Th-T fluorescence, mean of three wells” value (Supplementary Fig. 47 source data, measurement M48 of time course) was 4.03 and the “Th-T fluorescence, mean of three wells” value (Supplementary Fig. 47 source data, measurement M49 of time course) was 4.026. For the same compound, the “Th-T fluorescence, mean of three wells” value (Supplementary Fig. 47 source data, measurement M50 of time course) was 3.972, the “Th-T fluorescence, mean of three wells” value (Supplementary Fig. 47 source data, measurement M51 of time course) was 4.006 and the “Th-T fluorescence, mean of three wells” value (Supplementary Fig. 47 source data, measurement M52 of time course) was 4. The “Th-T fluorescence, mean of three wells” value (Supplementary Fig. 47 source data, measurement M53 of time course) was 3.995, the “Th-T fluorescence, mean of three wells” value (Supplementary Fig. 47 source data, measurement M54 of time course) was 4.005 and the “Th-T fluorescence, mean of three wells” value (Supplementary Fig. 47 source data, measurement M55 of time course) was 4.01. The “Th-T fluorescence, mean of three wells” value (Supplementary Fig. 47 source data, measurement M56 of time course) was 4.026, the “Th-T assay plate reading, mean of three wells (Supplementary Fig. 47)” value (from here on “Th-T assay plate reading, mean”) (measurement M1) was 0.1917 and the “Th-T assay plate reading, mean” value (measurement M2) was 0.1872. The “Th-T assay plate reading, mean” value (measurement M3) was 0.2017, the “Th-T assay plate reading, mean” value (measurement M4) was 0.2278 and the “Th-T assay plate reading, mean” value (measurement M5) was 0.2368. For the same compound, the “Th-T assay plate reading, mean” value (measurement M6) was 0.2919, the “Th-T assay plate reading, mean” value (measurement M7) was 0.3712 and the “Th-T assay plate reading, mean” value (measurement M8) was 0.4061. The “Th-T assay plate reading, mean” value (measurement M9) was 0.4563, the “Th-T assay plate reading, mean” value (measurement M10) was 0.5903 and the “Th-T assay plate reading, mean” value (measurement M11) was 0.9948. The “Th-T assay plate reading, mean” value (measurement M12) was 1.768, the “Th-T assay plate reading, mean” value (measurement M13) was 2.41 and the “Th-T assay plate reading, mean” value (measurement M14) was 2.789. The “Th-T assay plate reading, mean” value (measurement M15) was 2.988, the “Th-T assay plate reading, mean” value (measurement M16) was 3.116 and the “Th-T fluorescence, mean of three wells” value (reading M17, Supplementary Fig. 47 source data) was 3.2228. The “Th-T fluorescence, mean of three wells” value (reading M18, Supplementary Fig. 47 source data) was 3.274, the “Th-T fluorescence, mean of three wells” value (reading M19, Supplementary Fig. 47 source data) was 3.356 and the “Th-T fluorescence, mean of three wells” value (reading M20, Supplementary Fig. 47 source data) was 3.42. For the same compound, the “Th-T fluorescence, mean of three wells” value (reading M21, Supplementary Fig. 47 source data) was 3.466, the “Th-T fluorescence, mean of three wells” value (reading M22, Supplementary Fig. 47 source data) was 3.5211 and the “Th-T fluorescence, mean of three wells” value (reading M23, Supplementary Fig. 47 source data) was 3.558. The “Th-T fluorescence, mean of three wells” value (reading M24, Supplementary Fig. 47 source data) was 3.581, the “Th-T fluorescence, mean of three wells” value (reading M25, Supplementary Fig. 47 source data) was 3.61 and the “Th-T fluorescence, mean of three wells” value (reading M26, Supplementary Fig. 47 source data) was 3.64. The “Th-T fluorescence, mean of three wells” value (reading M27, Supplementary Fig. 47 source data) was 3.697, the “Th-T fluorescence, mean of three wells” value (reading M28, Supplementary Fig. 47 source data) was 3.7304 and the “Th-T fluorescence, mean of three wells” value (reading M29, Supplementary Fig. 47 source data) was 3.755. For the same compound, the “Th-T fluorescence, mean of three wells” value (reading M30, Supplementary Fig. 47 source data) was 3.765, the “Th-T fluorescence, mean of three wells” value (reading M31, Supplementary Fig. 47 source data) was 3.799 and the “Th-T fluorescence, mean of three wells” value (reading M32, Supplementary Fig. 47 source data) was 3.833. The “Th-T fluorescence, mean of three wells” value (reading M33, Supplementary Fig. 47 source data) was 3.798, the “Th-T fluorescence, mean of three wells” value (reading M34, Supplementary Fig. 47 source data) was 3.8608 and the “Th-T fluorescence, mean of three wells” value (reading M35, Supplementary Fig. 47 source data) was 3.851. The “Th-T fluorescence, mean of three wells” value (reading M36, Supplementary Fig. 47 source data) was 3.863, the “Th-T fluorescence, mean of three wells” value (time course, reading M57) was 4.004 and the “Th-T fluorescence, mean of three wells” value (time course, reading M58) was 4.031. For the same compound, the “Th-T fluorescence, mean of three wells” value (time course, reading M59) was 4.01, the “Th-T fluorescence, mean of three wells” value (time course, reading M60) was 3.981 and the “Th-T fluorescence, mean of three wells” value (time course, reading M61) was 4.001. For the same compound, the “Th-T fluorescence, mean of three wells” value (time course, reading M62) was 4.022, the “Th-T fluorescence, mean of three wells” value (time course, reading M63) was 4.022 and the “Th-T fluorescence, mean of three wells” value (time course, reading M64) was 3.993. For the same compound, the “Th-T fluorescence, mean of three wells” value (time course, reading M65) was 3.998, the “Th-T fluorescence, mean of three wells” value (time course, reading M66) was 4.007 and the “Th-T fluorescence, mean of three wells” value (time course, reading M67) was 3.974. For the same compound, the “Th-T fluorescence, mean of three wells” value (time-course reading M97, Supplementary Fig. 47 source data) was 3.915, the “Th-T fluorescence, mean of three wells” value (time-course reading M98, Supplementary Fig. 47 source data) was 3.9 and the “Th-T fluorescence, mean of three wells” value (time-course reading M99, Supplementary Fig. 47 source data) was 3.901. The “Th-T fluorescence, mean of three wells” value (time-course reading M100, Supplementary Fig. 47 source data) was 3.914, the “Th-T fluorescence, mean of three wells” value (time-course reading M101, Supplementary Fig. 47 source data) was 3.9074 and the “Th-T fluorescence, mean of three wells” value (time-course reading M102, Supplementary Fig. 47 source data) was 3.878. The “Th-T fluorescence, mean of three wells” value (time-course reading M103, Supplementary Fig. 47 source data) was 3.8886, the “Th-T fluorescence, mean of three wells” value (time-course reading M104, Supplementary Fig. 47 source data) was 3.914 and the “Th-T fluorescence, mean of three wells” value (time-course reading M105, Supplementary Fig. 47 source data) was 3.865. The “Th-T fluorescence, mean of three wells” value (time-course reading M106, Supplementary Fig. 47 source data) was 3.9, the “Th-T fluorescence, mean of three wells” value (time-course reading M107, Supplementary Fig. 47 source data) was 3.909 and the “Th-T fluorescence, mean of three wells” value (time-course reading M108, Supplementary Fig. 47 source data) was 3.872. For the same compound, the “Th-T fluorescence, mean of three wells” value (time-course reading M109, Supplementary Fig. 47 source data) was 3.882, the “Th-T fluorescence, mean of three wells” value (time-course reading M110, Supplementary Fig. 47 source data) was 3.8573 and the “Th-T fluorescence, mean of three wells” value (time-course reading M111, Supplementary Fig. 47 source data) was 3.873. For the same compound, the “Th-T fluorescence, mean of three wells” value (time-course reading M112, Supplementary Fig. 47 source data) was 3.8761, the “Th-T fluorescence, mean of three wells” value (time-course reading M113, Supplementary Fig. 47 source data) was 3.855 and the “Th-T fluorescence, mean of three wells” value (time-course reading M114, Supplementary Fig. 47 source data) was 3.858. For the same compound, the “Th-T fluorescence, mean of three wells” value (time-course reading M115, Supplementary Fig. 47 source data) was 3.833 and the “Th-T fluorescence, mean of three wells” value (time-course reading M116, Supplementary Fig. 47 source data) was 3.836.
